Calls of active or inactive are those of the source. No cut-off for these calls is given here.
Key:
Pseudomonas aeruginosa = experiment: Antibacterial activity against Pseudomonas aeruginosa ATCC 27853 assessed as diameter of growth inhibition zone at 20 mg/ml after 24 hr by disk diffusion method; assay type: functional; conditions: ATCC 27853, 24 h, read-out: DIZ
Klebsiella pneumoniae = experiment: Antibacterial activity against Klebsiella pneumoniae ATCC 15380 assessed as diameter of growth inhibition zone at 20 mg/ml after 24 hr by disk diffusion method; assay type: functional; conditions: ATCC 15380, 24 h, read-out: DIZ
Salmonella typhi [1] = experiment: Antibacterial activity against Salmonella enterica subsp. enterica serovar Typhi ATCC 19430 assessed as diameter of growth inhibition zone at 20 mg/ml after 24 hr by disk diffusion method; assay type: functional; conditions: ATCC 19430, 24 h, read-out: DIZ
Citrobacter freundii = experiment: Antibacterial activity against Citrobacter freundii ATCC 8090 = MTCC 1658 assessed as diameter of growth inhibition zone at 20 mg/ml after 24 hr by disk diffusion method; assay type: functional; conditions: ATCC 8090 = MTCC 1658, 24 h, read-out: DIZ
Salmonella typhi [2] = experiment: Antibacterial activity against Salmonella enterica subsp. enterica serovar Typhi ATCC 19430 assessed as growth inhibition after 24 hr by disk diffusion method; assay type: functional
Escherichia coli = experiment: Antibacterial activity against Escherichia coli ATCC 25922 assessed as diameter of growth inhibition zone at 20 mg/ml after 24 hr by disk diffusion method; assay type: functional; conditions: ATCC 25922, 24 h, read-out: DIZ
Priestia megaterium = experiment: Antibacterial activity against Bacillus megaterium ATCC 12872 assessed as diameter of growth inhibition zone at 20 mg/ml after 24 hr by disk diffusion method; assay type: functional; conditions: ATCC 12872, 24 h, read-out: DIZ
MDA-MB-435 = experiment: Anticancer activity against Homo sapiens (human) MDA-MB-435 cells at 0.1 to 100 uM by SRB assay; assay type: functional, cell-based
PC-3 = experiment: Anticancer activity against Homo sapiens (human) PC3 cells at 0.1 to 100 uM by SRB assay; assay type: functional, cell-based
OVCAR-3 = experiment: Anticancer activity against Homo sapiens (human) OVCAR3 cells at 0.1 to 100 uM by SRB assay; assay type: functional, cell-based

Row | SMILES | zone of inhibition at 20000 µg/mL (Pseudomonas aeruginosa) | zone of inhibition at 20000 µg/mL (Klebsiella pneumoniae) | zone of inhibition at 20000 µg/mL (Salmonella typhi [1]) | zone of inhibition at 20000 µg/mL (Citrobacter freundii) | MIC (Salmonella typhi [2]) | zone of inhibition at 20000 µg/mL (Escherichia coli) | zone of inhibition at 20000 µg/mL (Priestia megaterium) | Activity (MDA-MB-435) | Activity (PC-3) | Activity (OVCAR-3)
1 | CC1(C)CC(=O)C2=C(C1)OC(N)=C(C#N)C2c1cccs1 (stereo not drawn) | 20 mm | 19 mm | 22 mm | 10 mm | 10 µg | 20 mm | 10 mm | – | – | –
2 | Cc1ccc(C2C(C#N)=C(N)OC3=C2C(=O)CC(C)(C)C3)s1 (stereo not drawn) | 22 mm | 21 mm | 19 mm | 10 mm | 10 µg | 22 mm | 10 mm | – | – | –
3 | Cc1ccc(C2C(C#N)=C(N)OC3=C2C(=O)CC(C)(C)C3)o1 (stereo not drawn) | 15 mm | 15 mm | 16 mm | 10 mm | 10 µg | 17 mm | 12 mm | – | – | –
4 | CC1(C)CC(=O)C2=C(C1)OC(N)=C(C#N)C2c1ccc[nH]1 (stereo not drawn) | 20 mm | 19 mm | 22 mm | 10 mm | 10 µg | 20 mm | 12 mm | – | – | –
5 | Cc1ccsc1C1C(C#N)=C(N)Oc2[nH]c(=O)[nH]c(=O)c21 (stereo not drawn) | 20 mm | 22 mm | 21 mm | 12 mm | 10 µg | 16 mm | 10 mm | – | – | –
6 | N#CC1=C(N)Oc2[nH]c(=O)[nH]c(=O)c2C1c1ccco1 (stereo not drawn) | 14 mm | 16 mm | 18 mm | 10 mm | 10 µg | 12 mm | 14 mm | inactive | inactive | inactive
7 | COc1cccc2c1C(=O)c1c(O)c3c(c(O)c1C2=O)C[C@@](O)(C(=O)CO)C[C@@H]3O[C@H]1C[C@H](N)[C@H](O)[C@H](C)O1 | – | – | – | – | – | – | – | Active | Active | Active
8 | Cc1ccc(C2C(C#N)=C(N)Oc3[nH]c(=O)[nH]c(=O)c32)s1 (stereo not drawn) | 22 mm | 22 mm | 20 mm | 12 mm | 10 µg | 16 mm | 10 mm | – | – | –
9 | CC1(C)CC(=O)C2=C(C1)OC(N)=C(C#N)C2c1ccco1 (stereo not drawn) | 14 mm | 15 mm | 15 mm | 10 mm | 10 µg | 16 mm | 12 mm | inactive | inactive | inactive
10 | N#CC1=C(N)Oc2[nH]c(=O)[nH]c(=O)c2C1c1ccc[nH]1 (stereo not drawn) | 18 mm | 20 mm | 22 mm | 12 mm | 10 µg | 14 mm | 12 mm | – | – | –
11 | N#CC1=C(N)Oc2[nH]c(=O)[nH]c(=O)c2C1c1cccs1 (stereo not drawn) | 18 mm | 20 mm | 22 mm | 12 mm | 10 µg | 15 mm | 12 mm | – | – | –
12 | Cc1ccsc1C1C(C#N)=C(N)OC2=C1C(=O)CC(C)(C)C2 (stereo not drawn) | 22 mm | 20 mm | 19 mm | 10 mm | 10 µg | 21 mm | 12 mm | – | – | –
13 | Cc1ccc(C2C(C#N)=C(N)Oc3[nH]c(=O)[nH]c(=O)c32)o1 (stereo not drawn) | 15 mm | 17 mm | 18 mm | 10 mm | 10 µg | 12 mm | 14 mm | – | – | –

— ChEMBL document CHEMBL3046029, “Green approach towards the facile synthesis of dihydropyrano(c)chromene and pyrano[2,3-d]pyrimidine derivatives and their biological evaluation” (2013)
